{"source": "paper PMC5375023", "about": "(Neurochemistry international, 2017)", "key": {"[1]": {"tested_on": "BDNF mRNA in CCF-STTG1 cells", "test": "qPCR of BDNF steady-state mRNA", "format": "cell-based, human", "conditions": "3 hr"}, "ischemic stroke": {"tested_on": "ischemic stroke", "conditions": "acute low dose 0.05 mg/kg, s.c., rats; ref Schetz et al., 2007; cited from earlier work"}, "U87MG cells": {"tested_on": "U87MG cells", "test": "BDNF secretion by in situ ELISA, U87MG", "conditions": "72 hrs treatment"}, "CCF-STTG1 cells": {"tested_on": "CCF-STTG1 cells", "test": "BDNF secretion by in situ ELISA, CCF-STTG1", "conditions": "for BDNF secretion from CCF-STTG1 cells, compound alone: 72 hrs treatment"}, "human S2R": {"molecular_target": "human S2R (Homo sapiens, UniProt Q5BJF2)", "sequence (Q5BJF2 whole entry)": "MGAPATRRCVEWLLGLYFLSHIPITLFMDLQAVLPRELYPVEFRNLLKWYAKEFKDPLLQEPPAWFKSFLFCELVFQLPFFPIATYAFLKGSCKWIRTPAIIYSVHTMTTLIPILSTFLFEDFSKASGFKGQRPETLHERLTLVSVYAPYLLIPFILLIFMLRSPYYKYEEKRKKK", "test": "Competition binding with [3H]DTG at S2R in untransfected MCF-7 cells", "conditions": "for IC50: read-out: IC50 at S2R; for IC50 / Ki: MCF-7, ± SEM; for Ki: read-out: Ki at S2R"}, "EP2R": {"tested_on": "EP2R", "conditions": "10 μM; ref af Forselles et al., 2011; cited from earlier work"}, "BV-2 cells": {"tested_on": "BV-2 cells", "test": "BDNF secretion by in situ ELISA, BV-2", "format": "cell-based, murine", "conditions": "10 μM"}, "human S1R [2]": {"molecular_target": "T1, human S1R (Homo sapiens, UniProt Q99720)", "T1 sequence (Q99720 whole entry)": "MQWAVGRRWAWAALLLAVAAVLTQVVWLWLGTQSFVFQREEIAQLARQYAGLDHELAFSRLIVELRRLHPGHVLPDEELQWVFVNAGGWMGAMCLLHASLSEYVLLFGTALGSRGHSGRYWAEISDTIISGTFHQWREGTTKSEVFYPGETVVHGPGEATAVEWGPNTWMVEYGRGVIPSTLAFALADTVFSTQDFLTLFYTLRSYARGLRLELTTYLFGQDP", "conditions": "ref Lee et al., 2008, cited from earlier work"}, "human S1R [3]": {"molecular_target": "T1, human S1R", "test": "Competition binding with [3H]-"}, "[4]": {"conditions": "15 nM, Fractional Occupancy = [ligand]/([ligand]+Ki)"}}, "note": "Read-outs that look alike come from different tables or passages of the source.", "data": [{"compound": "CC(C)Cn1c(=O)n(C)c(=O)c2[nH]cnc21", "note": "[IBMX]", "values": [{"measurement": "effect on BDNF mRNA levels", "setting": "[1]; 100 μM", "value": "no effect on BDNF mRNA levels"}]}, {"compound": "C=C[C@@]1(C)CC(=O)[C@]2(O)[C@@]3(C)[C@@H](O)CCC(C)(C)[C@@H]3[C@H](O)[C@H](OC(C)=O)[C@@]2(C)O1", "note": "[Forskolin]", "values": [{"measurement": "increase in BDNF mRNA levels", "setting": "[1]; 100 μM forskolin + 100 μM IBMX, normalized to vehicle", "value": "> 3", "unit": "fold"}]}, {"compound": "O=C(CCCN1CCC(O)(c2ccc(Cl)cc2)CC1)c1ccc(F)cc1", "note": "[haloperidol, Haloperidol]", "values": [{"measurement": "protection against ischemic stroke", "setting": "ischemic stroke", "value": "protected rats against an ischemic stroke"}, {"measurement": "BDNF secretion from U87MG cells, compound alone", "setting": "U87MG cells", "value": "but not haloperidol, facilitated BDNF secretion"}, {"measurement": "BDNF secretion from CCF-STTG1 cells, compound alone", "setting": "CCF-STTG1 cells", "value": "but not haloperidol, facilitated BDNF secretion"}]}, {"compound": "CCCN(CCC)CCc1ccc(OC)c(OCCc2ccccc2)c1", "note": "[NE100]", "values": [{"measurement": "IC50", "setting": "human S2R; [3H]-DTG", "value": "46 ± 6.4", "unit": "nM"}, {"measurement": "Ki", "setting": "human S2R; [3H]-DTG", "value": "43 ± 6", "unit": "nM"}]}, {"compound": "COc1ccc2cc(OCC3(C(=O)O)CN(C(=O)c4ccc(F)cc4)C3)ccc2c1", "note": "[PF-04418948]", "values": [{"measurement": "EP2 receptor occupancy", "setting": "EP2R", "value": 99.9, "unit": "%"}, {"measurement": "BDNF secretion from CCF-STTG1 cells, compound alone", "setting": "CCF-STTG1 cells", "value": "no effect by itself"}, {"measurement": "effect on PGE2-stimulated BDNF secretion", "setting": "CCF-STTG1 cells; antagonist 10 μM vs PGE2", "value": "blocked the stimulatory effect of PGE2"}]}, {"compound": "c1ccc(CCCCN2CCC(c3ccccc3)CC2)cc1", "note": "[4-PPBP]", "values": [{"measurement": "BDNF secretion from BV-2 cells, compound alone", "setting": "BV-2 cells", "value": "failed to significantly stimulate the secretion of detectable levels of BDNF"}, {"measurement": "BDNF signal above DMSO vehicle", "setting": "BV-2 cells; BV-2 cells, P = 0.4", "value": "1.1 ± 0.06", "unit": "fold"}, {"measurement": "effect on BDNF mRNA levels", "setting": "[1]; 10 μM", "value": "no effect on BDNF mRNA levels"}, {"measurement": "BDNF secretion from CCF-STTG1 cells, compound alone", "setting": "CCF-STTG1 cells", "value": "facilitated BDNF secretion"}]}, {"compound": "OC(CCCN1CCC(O)(c2ccc(Cl)cc2)CC1)c1ccc(F)cc1", "note": "(racemic) [reduced haloperidol, (±)-4-(4-Chlorophenyl)-α-(4-fluorophenyl)-4-hydroxy-1-piperidinebutanol]", "values": [{"measurement": "effect on BDNF mRNA levels", "setting": "[1]; 10 μM", "value": "no effect on BDNF mRNA levels"}, {"measurement": "BDNF secretion from U87MG cells, compound alone", "setting": "U87MG cells", "value": "facilitated BDNF secretion"}, {"measurement": "BDNF secretion from CCF-STTG1 cells, compound alone", "setting": "CCF-STTG1 cells", "value": "facilitated BDNF secretion"}]}, {"compound": "OC1(c2ccc(Cl)cc2)CCNCC1", "note": "[haloperidol metabolite I, 4-(4-Chlorophenyl)-4-hydroxypiperidine]", "values": [{"measurement": "effect on BDNF mRNA levels", "setting": "[1]; 100 μM", "value": "no effect on BDNF mRNA levels"}, {"measurement": "Ki", "setting": "human S1R [2]; read-out: affinity (Ki) for the S1R", "value": 128, "unit": "nM"}, {"measurement": "fold lower affinity for the S1R than haloperidol and reduced haloperidol", "setting": "human S1R [2]", "value": "> 75", "unit": "fold"}, {"measurement": "BDNF secretion from U87MG cells, compound alone", "setting": "U87MG cells", "value": "facilitated BDNF secretion"}, {"measurement": "BDNF secretion from CCF-STTG1 cells, compound alone", "setting": "CCF-STTG1 cells", "value": "facilitated BDNF secretion"}]}, {"compound": "O=C(O)CCC(=O)c1ccc(F)cc1", "note": "[haloperidol metabolite III, 3-(4-Fluorobenzoyl)propionic acid]", "values": [{"measurement": "affinity for the S1R, in words", "setting": "human S1R [2]", "value": "essentially no detectable affinity"}]}, {"compound": "CCCCC[C@H](O)/C=C/[C@H]1[C@H](O)CC(=O)[C@@H]1C/C=C\\CCCC(=O)O", "note": "[PGE2, Prostaglandin E2]", "values": [{"measurement": "displacement of specifically bound radioligand from S1R", "setting": "human S1R [3]; 10 μM, [3H]-(+)-pentazocine", "value": "unable to displace"}, {"measurement": "displacement of specifically bound radioligand from S2R", "setting": "human S2R; 10 μM, [3H]-DTG", "value": "unable to displace"}, {"measurement": "secreted BDNF, maximal stimulation", "setting": "CCF-STTG1 cells; 10 μM, ± SEM, n = 6 experiments, baseline 75.4 ± 6.9", "value": "128.6 ± 12.8", "unit": "pg/mL"}, {"measurement": "BDNF secretion from CCF-STTG1 cells, compound alone", "setting": "CCF-STTG1 cells", "value": "secreted BDNF in a concentration-dependent manner"}]}, {"compound": "CN1CCN(C2=Nc3cc(Cl)ccc3Nc3ccccc32)CC1", "note": "[clozapine]", "values": [{"measurement": "affinity for the S1R, in words", "setting": "human S1R [2]", "value": "essentially no affinity"}]}, {"compound": "(+)-SKF10047", "values": [{"measurement": "BDNF secretion from CCF-STTG1 cells, compound alone", "setting": "CCF-STTG1 cells", "value": "facilitated BDNF secretion"}]}, {"compound": "CN1CCN(CCc2ccc(Cl)c(Cl)c2)CC1", "note": "[BD1063]", "values": [{"measurement": "expected S1R occupancy", "setting": "human S1R [3]; 2 nM", "value": 27, "unit": "%"}, {"measurement": "calculated S1R occupancy", "setting": "human S1R [3]; [4]", "value": 74, "unit": "%"}, {"measurement": "Ki(S2R)/Ki(S1R) selectivity", "setting": "human S1R [3]; S1R over S2R", "value": 37, "unit": "fold"}, {"measurement": "IC50", "setting": "human S1R [3]; read-out: IC50 at S1R, [3H]-(+)-pentazocine, MCF-7-S1R, ± SEM", "value": "6.5 ± 0.87", "unit": "nM"}, {"measurement": "Ki", "setting": "human S1R [3]; read-out: Ki at S1R, [3H]-(+)-pentazocine, MCF-7-S1R, ± SEM", "value": "5.3 ± 0.71", "unit": "nM"}, {"measurement": "calculated S2R occupancy", "setting": "human S2R; [4]", "value": 7, "unit": "%"}, {"measurement": "IC50", "setting": "human S2R; [3H]-DTG", "value": "208 ± 30", "unit": "nM"}, {"measurement": "Ki", "setting": "human S2R; [3H]-DTG", "value": "194 ± 28", "unit": "nM"}, {"measurement": "BDNF secretion from CCF-STTG1 cells, compound alone", "setting": "CCF-STTG1 cells", "value": "no effect on its own"}, {"measurement": "effect on PGE2-stimulated BDNF response mediated by EP2R", "setting": "CCF-STTG1 cells; S1R-selective dose of BD1063", "value": "does not modify the PGE2 stimulated response"}, {"measurement": "effect on BDNF secretion produced by S1R agonists 4-PPBP and (+)-SKF10047", "setting": "CCF-STTG1 cells; antagonist 15 nM", "value": "significantly reduced BDNF secretion"}, {"measurement": "effect on BDNF secretion produced by haloperidol metabolites I and II", "setting": "CCF-STTG1 cells; antagonist BD1063 co-applied", "value": "significantly diminished BDNF secretion"}]}]}
